Literature values in patent US20120207744A1, “REPROGRAMMING COMPOSITIONS AND METHODS OF USING THE SAME” (priority 2009, published 2012).
Structures can show the parent of a compound that is named as a salt.

Key:
ESCs = details: cyclic activation of Wnt/β-catenin signaling in ESCs
[1] = tested on: mouse embryonic fibroblasts; details: small-molecule combination BIX-01294 and BayK8644
human ESCs = details: both appear equally effective in facilitating clonal growth
ES-cell = details: repression of MEK/ERK, in culture
ROCK1/ROCK2 = details: inhibits by competing with ATP; Ishizaki et al. 2000
Oct-3/4-GFP = Oct-3/4-GFP as a reporter
[2] = tested on: primary human fibroblasts; details: Oct-3/4 and Sox-2, without c-Myc or Klf-4
Klf-4 promoter = details: transient transfection, 2622-bp mouse Klf-4 promoter

O=C1Nc2cc(Br)ccc2/C1=C1/Nc2ccccc2/C1=N\O [6-bromoindirubin-3′-oxime]
ability of ESCs to reprogram somatic cells after fusion (ESCs): strikingly enhances

COc1cc2nc(N3CCCN(C)CC3)nc(NC3CCN(Cc4ccccc4)CC3)c2cc1OC [BIX-01294]
reprogramming of Oct-3/4/Klf-4 transduced cells [1]: enables reprogramming

COC(=O)C1=C(C)NC(C)=C([N+](=O)[O-])C1c1ccccc1C(F)(F)F (stereo not drawn) [BayK8644]
reprogramming of Oct-3/4/Klf-4 transduced cells [1]: enables reprogramming

Cc1cncc2cccc(S(=O)(=O)N3CCCNC[C@@H]3C)c12.Cl.Cl [H-1152, (S)-(+)-2-methyl-1-[(4-methyl-5-isoquinolinyl)sulfonyl]homopiperazine dihydrochloride]
working concentration for facilitating clonal growth, relative to HA-100 (human ESCs): ten times lower working concentrations than HA-100

COc1cccc(-c2cc(=O)c3ccccc3o2)c1N [PD098059]
effect on differentiation and ES-cell self-renewal (ES-cell): inhibits differentiation and maintains ES-cell self-renewal in culture

N#CC(=C(/N)Sc1ccccc1N)/C(C#N)=C(\N)Sc1ccccc1N [U0126]
effect on enterostatin-induced inhibition of KLF4 gene expression (GT1-7 cells; GT1-7 cells, ERK inhibitor): blocked

C[C@@H](N)[C@H]1CC[C@H](C(=O)Nc2ccncc2)CC1 [Y-27632, (+)-(R)-trans-4-(1-aminoethyl)-N-(4-pyridyl)cyclohexanecarboxamide dihydrochloride]
IC50 (ROCK1/ROCK2): 800 nM

CCCC(CCC)C(=O)O [valproic acid]
improvement of reprogramming efficiency (Oct-3/4-GFP): more than 100 fold | reprogramming with only two factors [2]: enables reprogramming of primary human fibroblasts

enterostatin
effect on KLF4 gene expression (GT1-7 cells; GT1-7 cells treated with the peptide): inhibited KLF4 gene expression

B1: Wnt3a: Wnt protein activating Wnt/β-catenin signaling (protein, UniProt P56704 19-352, looked up)
Protein Wnt-3a: SYPIWWSLAVGPQYSSLGSQPILCASIPGLVPKQLRFCRNYVEIMPSVAEGIKIGIQECQHQFRGRRWNCTTVHDSLAIFGPVLDKATRESAFVHAIASAGVAFAVTRSCAEGTAAICGCSSRHQGSPGKGWKWGGCSEDIEFGGMVSREFADARENRPDARSAMNRHNNEAGRQAIASHMHLKCKCHGLSGSCEVKTCWWSQPDFRAIGDFLKDKYDSASEMVVEKHRESRGWVETLRPRYTYFKVPTERDLVYYEASPNFCEPNPETGSFGTRDRTCNVSSHGIDGCDLLCCGRGHNARAERRREKCRCVFHWCCYVSCQECTRVYDVHTCK
ability of ESCs to reprogram somatic cells after fusion (ESCs): strikingly enhances

B2: IFN-gamma: IFN-gamma, cytokine inducing Klf-4 expression via phosphorylated STAT1 (protein, UniProt P01579 24-161, looked up)
Interferon gamma: QDPYVKEAENLKKYFNAGHSDVADNGTLFLGILKNWKEESDRKIMQSQIVSFYFKLFKNFKDDQSIQKSVETIKEDMNVKFFNSNKKKRDDFEKLTNYSVTDLNVQRKAIHELIQVMAELSPAAKTGKRKRSQMLFRG
increase of Klf-4 promoter activity (Klf-4 promoter): 3.5 fold
